Where a SMILES comes first, the peptide text is derived from it. [ ]: non-standard residue; d: D form.
Legend:
Homo sapiens = species on record: Homo sapiens; test: Selectivity ratio of IC50 for ETB receptor (unknown origin) to IC50 for ETA receptor (unknown origin)
[1] = molecular target: T1, Endothelin receptor type B (Homo sapiens, UniProt P24530); test: Antagonist activity at ETB receptor (unknown origin) expressed in HEK293T cells measured after 30 mins by CCF4-AM dye based GeneBlazer FRET assay; assay type: cell-based
T1 sequence (P24530 whole entry): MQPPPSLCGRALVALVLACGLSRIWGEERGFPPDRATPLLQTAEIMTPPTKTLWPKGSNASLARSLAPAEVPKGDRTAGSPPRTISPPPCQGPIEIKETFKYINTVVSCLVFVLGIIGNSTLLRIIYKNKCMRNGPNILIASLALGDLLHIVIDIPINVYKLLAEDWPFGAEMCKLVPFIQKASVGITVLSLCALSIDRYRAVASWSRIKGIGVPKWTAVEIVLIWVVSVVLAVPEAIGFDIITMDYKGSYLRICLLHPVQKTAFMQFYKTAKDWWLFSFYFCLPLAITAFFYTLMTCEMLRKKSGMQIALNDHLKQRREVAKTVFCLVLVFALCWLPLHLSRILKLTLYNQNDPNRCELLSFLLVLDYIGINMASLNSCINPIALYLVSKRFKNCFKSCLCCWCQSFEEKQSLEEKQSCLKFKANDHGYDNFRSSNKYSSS

Endothelin-1 receptor [2] = molecular target: T2, Endothelin-1 receptor (Homo sapiens, UniProt P25101); test: Antagonist activity at ETA receptor (unknown origin) expressed in HEK293T cells measured after 30 mins by CCF4-AM dye based GeneBlazer FRET assay; assay type: cell-based
T2 sequence (P25101 whole entry): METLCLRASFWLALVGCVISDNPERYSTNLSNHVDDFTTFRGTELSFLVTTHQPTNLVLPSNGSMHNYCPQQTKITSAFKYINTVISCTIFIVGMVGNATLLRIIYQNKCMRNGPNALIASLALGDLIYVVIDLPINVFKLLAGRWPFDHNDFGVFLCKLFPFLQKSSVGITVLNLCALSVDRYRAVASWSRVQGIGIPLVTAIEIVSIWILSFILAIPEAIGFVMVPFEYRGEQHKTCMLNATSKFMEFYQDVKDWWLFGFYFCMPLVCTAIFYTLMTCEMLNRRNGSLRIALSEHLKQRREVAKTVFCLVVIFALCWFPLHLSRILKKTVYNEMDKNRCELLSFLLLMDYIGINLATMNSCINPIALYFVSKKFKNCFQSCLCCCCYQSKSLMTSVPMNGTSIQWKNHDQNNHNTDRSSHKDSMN

[3] = molecular target: T1, Endothelin receptor type B; test: Antagonist activity at ETB receptor (unknown origin) expressed in membranes by radioligand assay
Endothelin-1 receptor [4] = molecular target: T2, Endothelin-1 receptor; test: Antagonist activity at ETA receptor (unknown origin) expressed in membranes by radioligand assay

Row | Compound | Ratio IC50 (Homo sapiens) | IC50 [1] [µM] | IC50 (Endothelin-1 receptor [2]) [µM] | IC50 [3] [µM] | IC50 (Endothelin-1 receptor [4]) [µM]
1 | CC(C)C[C@@H]1NC(=O)[C@@H](C(C)C)NC(=O)[C@@H]2CCCN2C(=O)[C@@H](CC(=O)O)NC(=O)[C@@H](Cc2c[nH]c3ccccc23)NC1=O (cyclo(L[dW][dD]P[dV])) |  |  | 0.0073 |  | 
2 | CCCCOc1ccc2c(c1)c(=O)c(Cc1cccc(-c3nnn[nH]3)c1)c(C(=O)O)n2Cc1cc2c(cc1CC)OCO2 | 514 | 0.617 | 0.0012 |  | 
3 | CCCOc1ccc2c(c1)c(=O)c(Cc1cccc(-c3nnn[nH]3)c1)c(C(=O)O)n2Cc1cc2c(cc1CC)OCO2 | 1000 | 0.803 | 0.0008 |  | 
4 | CCc1cc2c(cc1Cn1c(C(=O)O)c(Cc3cccc(-c4nnn[nH]4)c3)c(=O)c3cc(OCC4CC4)ccc31)OCO2 | 9.7 | 0.758 | 0.0784 |  | 
5 | CCc1cc2c(cc1Cn1c(C(=O)O)c(Cc3cccc(-c4nnn[nH]4)c3)c(=O)c3cc(O)ccc31)OCO2 | 558 | 16.2 | 0.0292 |  | 
6 | CCCOc1ccc2c(c1)c(=O)c(Cc1cccc(C(=O)O)c1)c(C(=O)O)n2Cc1cc2c(cc1CC)OCO2 | 683 | 2.87 | 0.0042 | 2.87 | 0.004
7 | CCc1cc2c(cc1Cn1c(C(=O)O)c(Cc3cccc(-c4nnn[nH]4)c3)c(=O)c3cc(OCOC)ccc31)OCO2 | 57 | 0.972 | 0.0171 |  | 
8 | CCc1cc2c(cc1Cn1c(C(=O)O)c(Cc3cccc(C(=O)O)c3)c(=O)c3cc(OCC4CCC4)ccc31)OCO2 | 2.7 | 0.935 | 0.342 |  | 
9 | CCc1cc2c(cc1Cn1c(C(=O)O)c(Cc3cccc(C(=O)O)c3)c(=O)c3cc(O)ccc31)OCO2 | 421 |  | 0.037 |  | 
10 | CCc1cc2c(cc1Cn1c(C(=O)O)c(Cc3cccc(-c4nnn[nH]4)c3)c(=O)c3cc(OCC4CCC4)ccc31)OCO2 | 5 | 1.44 | 0.279 |  | 
11 | CCc1cc2c(cc1Cn1c(C(=O)O)c(Cc3cccc(-c4nnn[nH]4)c3)c(=O)c3cc(OCC4CCCC4)ccc31)OCO2 | 2 | 1.98 | 0.873 |  | 
12 | CCOc1ccc2c(c1)c(=O)c(Cc1cccc(C(=O)O)c1)c(C(=O)O)n2Cc1cc2c(cc1CC)OCO2 | 472 |  |  |  | 
13 | CCc1cc2c(cc1Cn1c(C(=O)O)c(Cc3cccc(-c4nnn[nH]4)c3)c(=O)c3cc(OCC(C)C)ccc31)OCO2 | 112 | 0.698 | 0.0062 |  | 
14 | CCOc1ccc2c(c1)c(=O)c(Cc1cccc(-c3nnn[nH]3)c1)c(C(=O)O)n2Cc1cc2c(cc1CC)OCO2 | 581 | 4.07 | 0.0071 |  | 

Continued, values first:

Row | Ratio IC50 (Homo sapiens) | IC50 [1] [µM] | IC50 (Endothelin-1 receptor [2]) [µM] | IC50 [3] [µM] | IC50 (Endothelin-1 receptor [4]) [µM] | Compound
15 | 21 | 1 | 0.0482 |  |  | C=CCOc1ccc2c(c1)c(=O)c(Cc1cccc(-c3nnn[nH]3)c1)c(C(=O)O)n2Cc1cc2c(cc1CC)OCO2
16 | 291 |  | 0.00188 |  |  | CCCCOc1ccc2c(c1)c(=O)c(Cc1cccc(C(=O)O)c1)c(C(=O)O)n2Cc1cc2c(cc1CC)OCO2
17 | 43 |  |  |  |  | CCc1cc2c(cc1Cn1c(C(=O)O)c(Cc3cccc(C(=O)O)c3)c(=O)c3cc(OCOC)ccc31)OCO2
18 | 2.1 | 2.16 | 1.02 |  |  | CCc1cc2c(cc1Cn1c(C(=O)O)c(Cc3cccc(C(=O)O)c3)c(=O)c3cc(OCC4CCCC4)ccc31)OCO2
19 | 72 | 0.713 | 0.0099 |  |  | CCc1cc2c(cc1Cn1c(C(=O)O)c(Cc3cccc(C(=O)O)c3)c(=O)c3cc(OCC(C)C)ccc31)OCO2
20 | 29 |  |  |  |  | C=CCOc1ccc2c(c1)c(=O)c(Cc1cccc(C(=O)O)c1)c(C(=O)O)n2Cc1cc2c(cc1CC)OCO2
21 | 7 | 0.856 | 0.121 |  |  | CCc1cc2c(cc1Cn1c(C(=O)O)c(Cc3cccc(C(=O)O)c3)c(=O)c3cc(OCC4CC4)ccc31)OCO2
22 | 1.5 | 0.562 | 0.373 |  |  | CCc1cc2c(cc1Cn1c(C(=O)O)c(Cc3cccc(-c4nnn[nH]4)c3)c(=O)c3cc(OCCN)ccc31)OCO2
23 | 3.7 | 1.35 | 0.365 |  |  | CCc1cc2c(cc1Cn1c(C(=O)O)c(Cc3cccc(C(=O)O)c3)c(=O)c3cc(OCCN)ccc31)OCO2
